{
  "source": "ChEMBL document CHEMBL5370649",
  "about": "“Novel Coumarin Derivatives Inhibit the Quorum Sensing System and Iron Homeostasis as Antibacterial Synergists against Pseudomonas aeruginosa” (J Med Chem, 2023)",
  "key": {"[1]": {"system": "Pseudomonas aeruginosa", "test": "Antibacterial activity against Pseudomonas aeruginosa PAO1 in ABTGC medium assessed as bacterial growth inhibition incubated for 16 hrs", "format": "functional"}, "[2]": {"system": "Pseudomonas aeruginosa", "test": "Antibiofilm activity against Pseudomonas aeruginosa PAO1 in ABTGC medium assessed as inhibition of biofilm formation incubated for 24 hrs by crystal violet staining based absorbance assay", "format": "functional, organism-based", "conditions": "PAO1, 24 h"}, "[3]": {"target": "T1, Transcriptional regulator MvfR (Pseudomonas aeruginosa PA14) (UniProt A0A072ZLE6)", "T1 sequence (whole entry)": "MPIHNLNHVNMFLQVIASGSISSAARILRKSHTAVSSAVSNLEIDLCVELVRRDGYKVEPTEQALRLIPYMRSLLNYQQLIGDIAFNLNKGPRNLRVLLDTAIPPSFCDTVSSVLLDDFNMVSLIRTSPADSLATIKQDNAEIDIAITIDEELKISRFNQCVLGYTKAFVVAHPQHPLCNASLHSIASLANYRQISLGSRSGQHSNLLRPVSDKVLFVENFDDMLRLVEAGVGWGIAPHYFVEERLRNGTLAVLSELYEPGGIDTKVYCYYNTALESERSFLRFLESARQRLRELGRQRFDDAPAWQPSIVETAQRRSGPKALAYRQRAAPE", "test": "Inhibition of PqsR-mediated quorum sensing system in Pseudomonas aeruginosa PAO1 assessed as inhibition of pyocyanin production at 1.25 to 20 uM incubated for 24 hrs by absorbance based assay", "conditions": "dose 1.25-20 µM"}, "[4]": {"target": "T2, HTH-type quorum-sensing regulator RhlR (Pseudomonas aeruginosa (strain ATCC 15692 / PAO1 / 1C / PRS 101 / LMG12228)) (UniProt P54292)", "T2 sequence (whole entry)": "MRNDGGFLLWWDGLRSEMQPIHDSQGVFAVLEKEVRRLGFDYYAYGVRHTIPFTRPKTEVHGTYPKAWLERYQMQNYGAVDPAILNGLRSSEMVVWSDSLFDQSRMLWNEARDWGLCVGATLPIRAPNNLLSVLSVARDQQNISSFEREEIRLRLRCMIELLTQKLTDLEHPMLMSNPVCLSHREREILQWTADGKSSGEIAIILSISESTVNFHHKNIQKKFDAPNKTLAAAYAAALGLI", "test": "Inhibition of RhlR-mediated quorum sensing system in Pseudomonas aeruginosa PAO1 assessed as inhibition of pyocyanin production at 1.25 to 20 uM incubated for 24 hrs by absorbance based assay", "conditions": "dose 1.25-20 µM"}, "[5]": {"test": "Inhibition of quorum sensing system in Pseudomonas aeruginosa PAO1-gfp assessed as inhibition of GFP fluorescence expression at 1.25 to 20 uM and measured for 12 hrs at 15 mins interval by fluorescence assay", "conditions": "dose 1.25-20 µM"}, "[6]": {"test": "Inhibition of quorum sensing system in Pseudomonas aeruginosa PAO1-rhlA-gfp assessed as inhibition of GFP fluorescence expression at 1.25 to 20 uM and measured for 12 hrs at 15 mins interval by fluorescence assay", "conditions": "dose 1.25-20 µM"}, "[7]": {"test": "Metal chelating activity assessed as Fe3+-compound complex formation assessed as pFe(III) value by fluorescence method"}, "[8]": {"system": "Pseudomonas aeruginosa", "test": "Inhibition of iron homeostasis in Pseudomonas aeruginosa PAO1 in ABTGC medium assessed as increase in iron-free pyoverdine production at 1.25 to 20 uM in presence of FeCl3 by fluorescence based microplate reader analysis", "format": "functional, organism-based", "conditions": "dose 1.25-20 µM"}, "[9]": {"system": "Pseudomonas aeruginosa", "test": "Inhibition of iron homeostasis in Pseudomonas aeruginosa PAO1 in ABTGC medium assessed as increase in iron-free pyochelin production at 1.25 to 20 uM in presence of FeCl3 by fluorescence based microplate reader analysis", "format": "functional, organism-based", "conditions": "dose 1.25-20 µM"}, "[10]": {"system": "Pseudomonas aeruginosa", "test": "Upregulation of pchB expression in Pseudomonas aeruginosa PAO1 at 20 uM incubated for 24 hrs by RNA sequencing analysis", "format": "functional"}, "[11]": {"system": "Pseudomonas aeruginosa", "test": "Upregulation of pvdE expression in Pseudomonas aeruginosa PAO1 at 20 uM incubated for 24 hrs by RNA sequencing analysis", "format": "functional"}, "[12]": {"system": "Pseudomonas aeruginosa", "test": "Downregulation of pqsA expression in Pseudomonas aeruginosa PAO1 at 20 uM incubated for 24 hrs by RNA sequencing analysis", "format": "functional"}, "[13]": {"system": "Pseudomonas aeruginosa", "test": "Downregulation of rhl expression in Pseudomonas aeruginosa PAO1 at 20 uM incubated for 24 hrs by RNA sequencing analysis", "format": "functional"}, "[14]": {"system": "Pseudomonas aeruginosa", "test": "Downregulation of rhlB expression in Pseudomonas aeruginosa PAO1 at 20 uM incubated for 24 hrs by RNA sequencing analysis", "format": "functional"}, "[15]": {"system": "Pseudomonas aeruginosa", "test": "Downregulation of pilT expression in Pseudomonas aeruginosa PAO1 at 20 uM incubated for 24 hrs by RNA sequencing analysis", "format": "functional"}, "[16]": {"system": "Pseudomonas aeruginosa", "test": "Downregulation of phyllo expression in Pseudomonas aeruginosa PAO1 at 20 uM incubated for 24 hrs by RNA sequencing analysis", "format": "functional"}, "[17]": {"system": "Pseudomonas aeruginosa", "test": "Downregulation of mexA expression in Pseudomonas aeruginosa PAO1 at 20 uM incubated for 24 hrs by RNA sequencing analysis", "format": "functional"}, "[18]": {"system": "Pseudomonas aeruginosa", "test": "Downregulation of mexE expression in Pseudomonas aeruginosa PAO1 at 20 uM incubated for 24 hrs by RNA sequencing analysis", "format": "functional"}, "[19]": {"system": "L02", "test": "Cytotoxicity against human L02 cells assessed as reduction in cell viability upto 50 uM incubated for 24 hrs by MTT assay", "format": "toxicity, cell-based", "conditions": "l02, 24 h"}, "[20]": {"test": "Toxicity in Zebrafish embryo assessed as survival rate of zebrafish larvae at 10 to 200 uM and mesured upto 120 hrs post fertilization", "design": "species or system Danio rerio", "conditions": "in vivo, dose 10-200 µM"}, "[21]": {"system": "Pseudomonas aeruginosa", "test": "Synergistic antibacterial activity against Pseudomonas aeruginosa PAO1 infected in Balb/c mouse wound infection model assessed as reduction in bacterial survival rate at wounded area at 50 uM,TOP QD for 3 days in presence of Ciprofloxacin by CFU assay", "format": "functional", "conditions": "time 3 day"}, "[22]": {"system": "Pseudomonas aeruginosa", "test": "Synergistic antibacterial activity against Pseudomonas aeruginosa PAO1 infected in Balb/c mouse wound infection model assessed as healing degree of wound at 50 uM […],TOP QD for 3 days in presence of Ciprofloxacin", "format": "functional, organism-based", "conditions": "time 3.0 day"}, "[23]": {"test": "Toxicity in Balb/c mouse wound infection model infected with Pseudomonas aeruginosa PAO1 assessed as morphological changes in liver at 50 uM,TOP for 3 days in Ciprofloxacin by H and E staining based analysis", "format": "tissue-based", "conditions": "in vivo, topical_or_ocular, 72 h, time 3 day"}, "[24]": {"test": "Toxicity in Balb/c mouse wound infection model infected with Pseudomonas aeruginosa PAO1 assessed as morphological changes in spleen at 50 uM,TOP for 3 days in Ciprofloxacin by H and E staining based analysis", "format": "tissue-based", "conditions": "in vivo, topical_or_ocular, 72 h, time 3 day"}, "[25]": {"test": "Toxicity in Balb/c mouse wound infection model infected with Pseudomonas aeruginosa PAO1 assessed as morphological changes in kidney at 50 uM,TOP for 3 days in Ciprofloxacin by H and E staining based analysis", "format": "tissue-based", "conditions": "in vivo, topical_or_ocular, 72 h, time 3 day"}, "[26]": {"test": "Toxicity in Balb/c mouse wound infection model infected with Pseudomonas aeruginosa PAO1 assessed as morphological changes in heart at 50 uM,TOP for 3 days in Tobramycin by H and E staining based analysis", "format": "tissue-based", "conditions": "in vivo, topical_or_ocular, 72 h, time 3 day"}, "[27]": {"test": "Toxicity in Balb/c mouse wound infection model infected with Pseudomonas aeruginosa PAO1 assessed as morphological changes in spleen at 50 uM,TOP for 3 days in Tobramycin by H and E staining based analysis", "format": "tissue-based", "conditions": "in vivo, topical_or_ocular, 72 h, time 3 day"}, "[28]": {"test": "Toxicity in Balb/c mouse wound infection model infected with Pseudomonas aeruginosa PAO1 assessed as morphological changes in kidney at 50 uM,TOP for 3 days in Tobramycin by H and E staining based analysis", "format": "tissue-based", "conditions": "in vivo, topical_or_ocular, 72 h, time 3 day"}},
  "note": "Active and inactive are the calls of the source. The calls are words filed in the database; no cut-off is given here.",
  "data": [
    {"compound": "Cc1ccc2oc(=O)cc(OCCCCCCC(=O)NO)c2c1", "values": [
      {"measurement": "MIC", "setting": "[1]", "result": "> 256", "unit": "µM"},
      {"measurement": "IC50", "setting": "[2]", "result": 3.66, "unit": "µM"},
      {"measurement": "inhibition", "setting": "[3]", "result": "Dose-Dependent Effect"},
      {"measurement": "inhibition", "setting": "[4]", "result": "inactive"},
      {"measurement": "inhibition", "setting": "[5]", "result": "inactive"},
      {"measurement": "inhibition", "setting": "[6]", "result": "inactive"},
      {"measurement": "pFe(III)", "setting": "[7]", "result": 20.1},
      {"measurement": "inhibition", "setting": "[8]", "result": "Active"},
      {"measurement": "inhibition", "setting": "[9]", "result": "Active"},
      {"measurement": "Activity", "setting": "[10]", "result": "Active"},
      {"measurement": "Activity", "setting": "[11]", "result": "Active"},
      {"measurement": "Activity", "setting": "[12]", "result": "Active"},
      {"measurement": "Activity", "setting": "[13]", "result": "Active"},
      {"measurement": "Activity", "setting": "[14]", "result": "Active"},
      {"measurement": "Activity", "setting": "[15]", "result": "Active"},
      {"measurement": "Activity", "setting": "[16]", "result": "Active"},
      {"measurement": "Activity", "setting": "[17]", "result": "Active"},
      {"measurement": "Activity", "setting": "[18]", "result": "Active"},
      {"measurement": "Activity", "setting": "[19]", "result": "Non-Toxic"},
      {"measurement": "Activity", "setting": "[20]", "result": "Non-Toxic"},
      {"measurement": "Activity", "setting": "[21]", "result": 3.19, "unit": "%"},
      {"measurement": "Activity", "setting": "[22]", "result": "Active"},
      {"measurement": "Activity", "setting": "[23]", "result": "Non-Toxic"},
      {"measurement": "Activity", "setting": "[24]", "result": "Non-Toxic"},
      {"measurement": "Activity", "setting": "[25]", "result": "Non-Toxic"},
      {"measurement": "Activity", "setting": "[26]", "result": "Non-Toxic"},
      {"measurement": "Activity", "setting": "[27]", "result": "Non-Toxic"},
      {"measurement": "Activity", "setting": "[28]", "result": "Non-Toxic"}
    ]}
  ]
}
